The record followed here is publication PMC7594079, “Insights into the Function and Evolution of Taste 1 Receptor Gene Family in the Carnivore Fish Gilthead Seabream (Sparus aurata)” (International Journal of Molecular Sciences, 2020).

SMILES strings stand for the structures.

For the first assay, the target named is T1, saT1R2a/R3 (Sparus aurata, UniProt A0A671TK95+A0A671VZB3).
T1 sequence (A0A671TK95 20-825): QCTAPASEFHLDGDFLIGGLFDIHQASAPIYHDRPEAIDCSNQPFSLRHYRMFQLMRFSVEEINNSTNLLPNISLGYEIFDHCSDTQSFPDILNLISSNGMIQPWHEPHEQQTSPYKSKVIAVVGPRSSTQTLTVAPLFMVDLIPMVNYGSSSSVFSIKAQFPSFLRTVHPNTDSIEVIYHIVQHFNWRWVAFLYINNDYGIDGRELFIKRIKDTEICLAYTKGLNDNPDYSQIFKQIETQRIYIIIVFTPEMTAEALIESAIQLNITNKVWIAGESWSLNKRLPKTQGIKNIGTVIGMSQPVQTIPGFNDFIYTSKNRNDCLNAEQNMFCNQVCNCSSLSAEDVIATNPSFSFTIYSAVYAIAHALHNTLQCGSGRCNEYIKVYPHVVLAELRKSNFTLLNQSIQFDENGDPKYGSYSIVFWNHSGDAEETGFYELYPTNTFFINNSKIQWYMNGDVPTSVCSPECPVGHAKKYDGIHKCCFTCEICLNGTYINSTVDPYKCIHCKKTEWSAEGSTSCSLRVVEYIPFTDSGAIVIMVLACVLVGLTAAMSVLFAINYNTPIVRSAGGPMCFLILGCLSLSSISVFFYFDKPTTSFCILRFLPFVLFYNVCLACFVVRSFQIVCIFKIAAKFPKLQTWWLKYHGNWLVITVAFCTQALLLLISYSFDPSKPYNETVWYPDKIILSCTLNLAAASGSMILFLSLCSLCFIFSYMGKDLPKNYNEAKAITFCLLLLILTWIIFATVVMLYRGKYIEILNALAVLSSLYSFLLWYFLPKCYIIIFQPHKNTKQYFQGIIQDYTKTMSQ
T1 sequence (A0A671VZB3 24-860): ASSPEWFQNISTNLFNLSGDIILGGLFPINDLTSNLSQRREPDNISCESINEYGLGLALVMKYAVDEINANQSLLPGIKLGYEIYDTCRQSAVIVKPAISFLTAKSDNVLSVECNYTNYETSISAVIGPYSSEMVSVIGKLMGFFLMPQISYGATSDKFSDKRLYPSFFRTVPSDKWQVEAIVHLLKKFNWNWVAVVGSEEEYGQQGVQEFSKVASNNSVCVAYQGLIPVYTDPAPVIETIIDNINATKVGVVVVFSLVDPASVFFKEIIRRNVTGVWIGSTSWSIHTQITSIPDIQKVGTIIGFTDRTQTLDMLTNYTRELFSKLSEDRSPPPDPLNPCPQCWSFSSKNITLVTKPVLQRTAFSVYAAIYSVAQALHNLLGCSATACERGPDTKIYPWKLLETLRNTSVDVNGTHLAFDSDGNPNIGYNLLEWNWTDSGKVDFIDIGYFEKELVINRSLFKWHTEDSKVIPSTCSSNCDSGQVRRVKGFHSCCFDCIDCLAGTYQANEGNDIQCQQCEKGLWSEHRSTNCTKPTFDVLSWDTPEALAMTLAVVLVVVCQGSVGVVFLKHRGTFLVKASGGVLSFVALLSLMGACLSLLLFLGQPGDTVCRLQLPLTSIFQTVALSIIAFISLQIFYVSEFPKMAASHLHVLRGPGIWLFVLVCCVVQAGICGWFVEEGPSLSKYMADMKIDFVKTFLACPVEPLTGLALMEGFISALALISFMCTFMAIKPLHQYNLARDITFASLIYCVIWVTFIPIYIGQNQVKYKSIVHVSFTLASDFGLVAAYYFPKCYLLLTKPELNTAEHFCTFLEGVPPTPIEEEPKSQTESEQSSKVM
Description: saT1R2a/R3 heterodimer transiently transfected in stable pGL3-NFAT-luc-HEK293 (Cl.3) cells, luciferase reporter. Format: cell-based. To be noted: as molarity; decimal comma. From the text:
Figure 6 Amino acid Log-dose response curves of activation in heterologous co-transfected (Cl.3) cells with saT1R1/3 (green dots), saT1R2a/3 (red squares) and saT1R2b/3 (black triangles) heterodimers. Evaluation of L-AA responses was based on the RLU mean ± SEM of four independent determinations normalized to the mean response of the same transfections stimulated with reduced assay medium (Basal Medium Eagle w/o L-glutamate (BME) + 1% FBS), and expressed as the percentage relative to basal levels (BL).
HEK293 cells were cultured in standard medium DMEM (Gibco, Thermo Fisher, Saint Louis, MO, USA) containing 10% FBS, penicillin (100 U/mL) and streptomycin ([…]) at 37 °C, with a humidified atmosphere at 5% CO2. pGL3-NFAT-luc-HEK293 stable clones were generated by co-transfections of pGL3-NFAT-luc and tgCMV/HyTK plasmids (50:1), the latter harboring the hygromycin phosphotransferase gene, using Lipofectamine LTX according to supplier’s protocols (Thermo Fisher, Saint Louis, MO, USA). Initially, HEK293 cells were selected using DMEM containing 400 μg/mL hygromycin B (Sigma, Darmstadt, Germany) in 24-well plates for two weeks; 24 colonies were further grown out in 96-well plates under reduced hygromycin selection (200 µg/mL) for three weeks. Potentially resistant NFAT-luc-HEK293 clones (n = 22) were validated after incubation in assay medium (DMEM + 1% FBS) containing PMA or Ionomycin (Sigma, Darmstadt, Germany) for 18 h (triplicates, 50,000 cells/well). Luciferase activity was quantified with ONE-Glo™ EX Reagent Kit (Promega, Madison, WI, USA) using a 96-microplate TECAN reader (Trading AG, Switzerland).
saT1Rs (saT1R1, saT1R2a, saT1R2b saT1R3) and saGαi1-2 genes were RT-PCR amplified using 5’ and 3’ flanking primers carrying HindIII and XhoI restriction sites, respectively. Gel-purified fragments were cloned into pGEM-T Easy vectors, re-sequenced, digested and subcloned into pcDNA™3 (Invitrogen, Carlsbad, CA, USA). Effective saT1R cloning into pcDNA™3 was further verified by HindIII/XhoI digestion. Transient co-transfections were done in 6-well plates (confluence ~70–80%) using 100 μL of reduced serum medium (Opti-MEM, Gibco, Thermo Fisher, Saint Louis, MO, USA) containing 150 ng of each selected pcDNA™3 construct, 1:10 charge ratio of Enhanced Green Fluorescent expressing construct (EGFP; positive control), and pBluescript II SK (+) vector DNA (Addgene, Watertown, MA, USA) up to 1 µg of totally transfected DNA. Following 24 h incubation, cells were washed with fresh standard medium and plated in polylysine treated plates for additional 24 h. Cells were then stimulated with L-AAs and sugar compounds for 18 h in a reduced assay medium (BME w/o L-glutamate; Gibco, Thermo Fisher, Saint Louis, MO, USA) + 1% FBS), to prevent unspecific Ca^2+/NFAT signaling activation and potential saT1R desensitization. All L-AAs and sugars used for in vitro experiments were obtained from Merck KGaA (Darmstadt, Germany).
A general note: A reporter such as luciferase makes a cellular process visible.
As to `CSCC[C@H](N)C(=O)O` [Met, Methionine], the “T1R2a/R3 [MSD] maximum stimulation dose” value is listed as 1,00 × 10^-1 M. On the same count and under the same terms, under `C[C@H](N)C(=O)O` [Ala, Alanine] stands 1,00 × 10^-1 M. Same read-out and setting: under `N[C@@H](CC(=O)O)C(=O)O` [Asp, Aspartic acid] stands 1,00 × 10^-5 M; under `N[C@@H](CS)C(=O)O` [Cys, Cysteine], 1,00 × 10^-4 M; under `N[C@@H](CCC(=O)O)C(=O)O` [Glu, Glutamic acid], 1,00 × 10^-2 M. The same measure, in the same setting: the figure for `CC[C@H](C)[C@H](N)C(=O)O` [Ile, Isoleucine] is 1,00 × 10^-1 M; for `N[C@@H](Cc1c[nH]cn1)C(=O)O` [His, Histidine] it is 1,00 × 10^-5 M; for `NCC(=O)O` [Gly, Glycine] it is 1,00 × 10^-1 M. Turning to `N=C(N)NCCC[C@H](N)C(=O)O` [Arg, Arginine], the “T1R2a/R3 [MSD] maximum stimulation dose” value was 1,00 × 10^-5 M. Regarding `N[C@@H](Cc1ccccc1)C(=O)O` [Phe, Phenylalanine], the “T1R2a/R3 [MSD] maximum stimulation dose” value is reported as 1,00 × 10^-2 M. The same measure, in the same setting: under `NC(=O)CC[C@H](N)C(=O)O` [Gln, Glutamine] stands 1,00 × 10^-1 M; under `N[C@@H](CO)C(=O)O` [Ser, Serine], 1,00 × 10^-1 M; under `NC(=O)C[C@H](N)C(=O)O` [Asn, Asparagine], 1,00 × 10^-1 M. The same measure, in the same setting: under `CC(C)[C@H](N)C(=O)O` [Val, Valine] stands 1,00 × 10^-1 M; under `O=C(O)[C@@H]1CCCN1` [Pro, Proline], 1,00 × 10^-1 M; under `C[C@@H](O)[C@H](N)C(=O)O` [Thr, Threonine], 1,00 × 10^-1 M. Same read-out and setting: the figure for `NCCCC[C@H](N)C(=O)O` [Lys, Lysine] is 1,00 × 10^-3 M; for `N[C@@H](Cc1c[nH]c2ccccc12)C(=O)O` [Trp, Tryptophan] it is 1,00 × 10^-3 M.

In the case of `CC(C)C[C@H](N)C(=O)O` [Leu, Leucine], the “T1R2a/R3 [MSD] maximum stimulation dose” value is 1,00 × 10^-1 M. Same read-out and setting: the figure for `N[C@@H](Cc1ccc(O)cc1)C(=O)O` [Tyr, Tyrosine] is 1,00 × 10^-3 M.

The same assay, now with this note: saT1R2a/R3; tested 1–500 mM.
As to `OC[C@H]1OC(O)[C@H](O)[C@@H](O)[C@@H]1O` (stereo partly drawn) [D-Glucose], the “concentration with significant activation” value stood at 200 mM.
